Reference: patent US20260042755A1, “GPR6 INVERSE AGONISTS” (MapLight Therapeutics, Inc., priority 2022, published 2026)
pIC50: −log10 of the molar value.

Assays:
GPR6 = target: T1, GPR6 (Homo sapiens, UniProt P46095); test: GPR6 antagonist functional cAMP assay (LANCE Ultra cAMP TR-FRET, CHO cells stably expressing GPR6); format: cell-based
T1 construct: expressed in transfected cells; host or cells: CHO cells
Protocol: (§1) Example 56. GPR6 and GPR3 Antagonist Functional cAMP Assay
(§2) CHO cells stably expressing GPR6 or GPR3 receptors were dissociated from cell culture flasks and incubated for 2 h at 37° C. in a 10 cm dish in a humidified incubator. Cells were dissociated, counted to have 1e6 cells/mL (4.5e6 cells needed/384-well plate), washed once in starved media, than in D-PBS and finally suspended in assay buffer (Krebs-Ringer Bicarbonate Buffer with 1800 mg/L glucose, without calcium chloride and sodium bicarbonate (Sigma) in the presence of 0.1% BSA and 150 μM of Ro 20-1724 Phosphodiesterase inhibitor).
(§3) Cells in suspension from above were plated in 384-well white Optiplate (PerkinElmer) at 10,000 cells/well/10 μl, briefly centrifuged prior direct addition of compounds ([…]) in 10 mM DMSO using a Tecan D300e Digital Dispenser, final DMSO in each well was normalized to 0.1%. Cells were incubated in the presence of compounds for 45 min at 37° C. in a humidified incubator.
(§4) To measure cAMP levels, LANCE® Ultra cAMP assay (Perkin Elmer), a homogeneous time-resolved fluorescence resonance energy transfer (TR-FRET) immunoassay was used following manufacturer's recommendations. Plates were shaken for 1 h at room temperature before reading on a Tecan InfiniteF200Pro multi-mode plate reader using standard FRET settings (Excitation 340 nm, Emission at 615 nm). FRET values were reported as readings obtained at 665 nm. Data were normalized to DMSO (0.1%) and reference compounds (100%) and fit to a 4-parameter logistical fit to generate antagonist IC50s.

GPR3 = target: T2, GPR3 (Homo sapiens, UniProt P46089); test: GPR3 antagonist functional cAMP assay (LANCE Ultra cAMP TR-FRET, CHO cells stably expressing GPR3); format: cell-based
T2 construct: expressed in transfected cells; host or cells: CHO cells
T2 sequence (P46089 whole entry, species assumed): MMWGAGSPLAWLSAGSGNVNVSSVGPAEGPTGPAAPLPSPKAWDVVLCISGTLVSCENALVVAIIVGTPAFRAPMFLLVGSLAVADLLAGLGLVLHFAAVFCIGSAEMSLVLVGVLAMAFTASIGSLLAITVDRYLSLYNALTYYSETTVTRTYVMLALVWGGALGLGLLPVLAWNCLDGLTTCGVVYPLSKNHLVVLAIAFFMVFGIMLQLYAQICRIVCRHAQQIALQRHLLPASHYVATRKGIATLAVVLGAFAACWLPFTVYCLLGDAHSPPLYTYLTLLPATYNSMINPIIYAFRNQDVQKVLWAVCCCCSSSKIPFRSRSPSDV
Protocol: as §1, §2, §3, §4

[1] = CHO cells stably expressing GPR6, cAMP assay
[2] = CHO cells stably expressing GPR3, cAMP assay
[3] = CHO cells stably expressing GPR6, cAMP assay (Example 24)
[4] = CHO cells stably expressing GPR3, cAMP assay (Example 24)

T1 sequence (P46095 whole entry): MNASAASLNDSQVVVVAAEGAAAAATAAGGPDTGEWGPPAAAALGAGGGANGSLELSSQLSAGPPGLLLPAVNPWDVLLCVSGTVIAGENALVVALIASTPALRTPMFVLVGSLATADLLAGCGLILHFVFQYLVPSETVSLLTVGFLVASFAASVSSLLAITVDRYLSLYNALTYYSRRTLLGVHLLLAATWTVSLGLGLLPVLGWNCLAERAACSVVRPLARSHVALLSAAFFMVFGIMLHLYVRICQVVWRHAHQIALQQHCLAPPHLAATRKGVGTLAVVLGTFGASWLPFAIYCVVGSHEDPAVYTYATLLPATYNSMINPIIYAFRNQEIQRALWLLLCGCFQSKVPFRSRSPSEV

pIC50 (GPR6; [3]) | pIC50 (GPR3; [4]) | pIC50 (GPR6; procedure of Example 24) | pIC50 (GPR3; procedure of Example 24) | SMILES | other results
 |  |  |  | CC(=O)N1Cc2nc(-c3cnn(C)c3)c(N3CCC(Oc4ccc(F)cc4F)CC3)nc2CC1CO (stereo not shown) [Compound 490, 1-{2-[4-(2,4-difluorophenoxy)piperidin-1-yl]-7-(hydroxymethyl)-3-(1-methyl-1H-pyrazol-4-yl)-5H,6H,7H,8H-pyrido[3,4-b]pyrazin-6-yl}ethan-1-one] | pIC50 (GPR6; [1]): 6.00 to 7.00; pIC50 (GPR3; [2]): 4.52 to 6.00
4.52 to 6.00 | 4.52 to 6.00 |  |  | CC(=O)N1CCc2nc(N3CCC(Oc4ccc(F)cc4F)CC3)c(C3CCCOC3)nc2C1 (stereo not shown) [Compound 237, 1-{2-[4-(2,4-difluorophenoxy)piperidin-1-yl]-3-(oxan-3-yl)-5H,6H,7H,8H-pyrido[3,4-b]pyrazin-6-yl}ethan-1-one] | 
 |  |  |  | COC[C@H]1C[C@@H]1c1nc2c(nc1N1CCC(Oc3ccc(F)cc3F)CC1)CCN(C(C)=O)C2 [Compound 546, 1-{3-[(1S,2S)-2-(methoxymethyl)cyclopropyl]-2-[4-(2,4-difluorophenoxy)-1-piperidyl]-5,6,7,8-tetrahydro-1,4,6-triaza-6-naphthyl}-1-ethanone] | pIC50 (GPR6; [1]): > 7.00; pIC50 (GPR3; [2]): 4.52 to 6.00
 |  | 6.00 to 7.00 | 4.52 to 6.00 | CC(C)(O)C(C)(O)c1cc2nc(N3CCC(Oc4ccc(F)cc4F)CC3)c(-c3cnn(C(F)F)c3)nc2cn1 (stereo not shown) [Compound 635, 2-{3-[1-(difluoromethyl)-4-pyrazolyl]-2-[4-(2,4-difluorophenoxy)-1-piperidyl]-1,4,6-triaza-7-naphthyl}-3-methyl-2,3-butanediol] | 
 |  | 6.00 to 7.00 | 4.52 to 6.00 | O=c1cc2nc(-c3cnn(CF)c3)c(N3CCN(Cc4ccc(F)cc4F)CC3)nc2c[nH]1 [Compound 796, 3-{4-[(2,4-difluorophenyl)methyl]-1-piperazinyl}-2-[1-(fluoromethyl)-4-pyrazolyl]-1,4,6-triaza-7(6H)-naphthalenone] | 
6.00 to 7.00 | 4.52 to 6.00 |  |  | C[C@H](O)[C@H](O)c1cc2nc(N3CCC(Oc4ccc(F)cc4F)CC3)c(-c3cnn(C)c3)nc2cn1 (single isomer, unassigned) [Compound 471] | 
4.52 to 6.00 | 4.52 to 6.00 |  |  | CNC(CO)c1cc2nc(N3CCC(Oc4ccc(F)cc4F)CC3)c(-c3cnn(C)c3)nc2cn1 (stereo not shown) [Compound 442, 2-{2-[4-(2,4-difluorophenoxy)piperidin-1-yl]-3-(1-methyl-1H-pyrazol-4-yl)pyrido[3,4-b]pyrazin-7-yl}-2-(methylamino)ethan-1-ol] | 
4.52 to 6.00 | 4.52 to 6.00 |  |  | CC(=O)N1CCc2nc(N3CCC(Oc4ccc(F)cc4F)CC3)c(-c3cnc[nH]3)nc2C1 [Compound 84, 1-{2-[4-(2,4-difluorophenoxy)piperidin-1-yl]-3-(1H-imidazol-5-yl)-5H,6H,7H,8H-pyrido[3,4-b]pyrazin-6-yl}ethan-1-one] | 
6.00 to 7.00 | 4.52 to 6.00 |  |  | Cn1cc(-c2nc3cnc(CC(O)CO)cc3nc2N2CCC(Oc3ccc(F)cc3F)CC2)cn1 (stereo not shown) [Compound 377, 3-(2-(4-(2,4-difluorophenoxy)piperidin-1-yl)-3-(1-methyl-1H-pyrazol-4-yl)pyrido[3,4-b]pyrazin-7-yl)propane-1,2-diol] | 
 |  |  |  | COCC(C)(O)c1cc2nc(N3CCC(Oc4ccc(F)cc4F)CC3)c(-c3cnn(C)c3)nc2cn1 (stereo not shown) [Compound 567, 2-{2-[4-(2,4-difluorophenoxy)-1-piperidyl]-3-(1-methyl-4-pyrazolyl)-1,4,6-triaza-7-naphthyl}-1-methoxy-2-propanol] | pIC50 (GPR6; [1]): 6.00 to 7.00; pIC50 (GPR3; [2]): 4.52 to 6.00
 |  | 6.00 to 7.00 | 4.52 to 6.00 | CC(C)(O)[C@@](C)(O)c1cc2nc(N3CCN(Cc4ccccc4F)CC3)c(-c3cnn(C4CC4)c3)nc2cn1 (single isomer, unassigned) [Compound 747] | 
 |  | 4.52 to 6.00 | 4.52 to 6.00 | CC(=O)N1CCc2nc(C3CCC(Oc4ccc(F)cc4F)CC3)c(-c3ncco3)nc2C1 (stereo not shown) [Compound 302, 1-{2-[4-(2,4-difluorophenoxy)cyclohexyl]-3-(1,3-oxazol-2-yl)-5H,6H,7H,8H-pyrido[3,4-b]pyrazin-6-yl}ethan-1-one] | 
4.52 to 6.00 | 4.52 to 6.00 |  |  | CNC(=O)CN1CCc2nc(N3CCC(Oc4ccc(F)cc4F)CC3)c(-c3cn[nH]c3)nc2C1 [Compound 145, 2-{2-[4-(2,4-difluorophenoxy)piperidin-1-yl]-3-(1H-pyrazol-4-yl)-5H,6H,7H,8H-pyrido[3,4-b]pyrazin-6-yl}-N-methylacetamide] | 
> 7.00 | 4.52 to 6.00 |  |  | Cn1cc(-c2nc3cnc(N)cc3nc2N2CCN(Cc3ccc(F)cc3F)CC2)cn1 [Compound 226, 2-{4-[(2,4-difluorophenyl)methyl]piperazin-1-yl}-3-(1-methyl-1H-pyrazol-4-yl)pyrido[3,4-b]pyrazin-7-amine] | 
6.00 to 7.00 | 4.52 to 6.00 |  |  | Nc1cc2nc(N3CCC(Oc4ccc(F)cc4F)CC3)c(-c3cnn(C4CC4)c3)nc2cn1 [Compound 462, 3-(1-cyclopropyl-1H-pyrazol-4-yl)-2-[4-(2,4-difluorophenoxy)piperidin-1-yl]pyrido[3,4-b]pyrazin-7-amine] | 
 |  | > 7.00 | 4.52 to 6.00 | COC[C@H](O)c1cc2nc(N3CCC(Oc4ccc(F)cc4F)CC3)c(-c3cnn(C)c3)nc2cn1 (single isomer, unassigned) [Compound 643] | 
 |  |  |  | CC(=O)N1CCc2nc(N3CCN(Cc4cc(Cl)ccc4F)CC3)c(-c3ccc(F)c(N)n3)nc2C1 [Compound 582, 1-[3-(6-amino-5-fluoro-2-pyridyl)-2-{4-[(5-chloro-2-fluorophenyl)methyl]-1-piperazinyl}-5,6,7,8-tetrahydro-1,4,6-triaza-6-naphthyl]-1-ethanone] | pIC50 (GPR6; [1]): > 7.00; pIC50 (GPR3; [2]): 4.52 to 6.00
 |  | 6.00 to 7.00 | 4.52 to 6.00 | CC(C)(O)C(C)(O)c1cc2nc(N3CCN(Cc4ccc(F)cc4F)CC3)c(-c3cnn(C(F)F)c3)nc2cn1 (stereo not shown) [Compound 657, 2-{3-[1-(difluoromethyl)-4-pyrazolyl]-2-{4-[(2,4-difluorophenyl)methyl]-1-piperazinyl}-1,4,6-triaza-7-naphthyl}-3-methyl-2,3-butanediol] | 
 |  |  |  | CC(=O)N1CCc2nc(N3CCN(Cc4cccnc4)CC3)c(-c3cnn(C)c3)nc2C1 [Compound 517, 1-[3-(1-methyl-4-pyrazolyl)-2-{4-[(3-pyridyl)methyl]-1-piperazinyl}-5,6,7,8-tetrahydro-1,4,6-triaza-6-naphthyl]-1-ethanone] | pIC50 (GPR6; [1]): ≤ 4.52; pIC50 (GPR3; [2]): ≤ 4.52
 |  | 6.00 to 7.00 | 4.52 to 6.00 | Nc1cc2nc(-c3cnn(CF)c3)c(N3CCN(Cc4ccc(F)cc4F)CC3)nc2cn1 [Compound 794, 3-{4-[(2,4-difluorophenyl)methyl]-1-piperazinyl}-2-[1-(fluoromethyl)-4-pyrazolyl]-1,4,6-triaza-7-naphthylamine] | 
 |  |  |  | CC(=O)N1CCc2nc(N3CCN(Cc4cccc(=O)[nH]4)CC3)c(-c3cnn(C)c3)nc2C1 [Compound 530, 6-({4-[6-acetyl-3-(1-methyl-4-pyrazolyl)-5,6,7,8-tetrahydro-1,4,6-triaza-2-naphthyl]-1-piperazinyl}methyl)-2(1H)-pyridinone] | pIC50 (GPR6; [1]): ≤ 4.52; pIC50 (GPR3; [2]): ≤ 4.52
 |  | 6.00 to 7.00 | 4.52 to 6.00 | CC(C)(O)C(C)(O)c1cc2nc(-c3cnn(CF)c3)c(N3CCC(Oc4ccc(F)cc4F)CC3)nc2cn1 (single isomer, unassigned) [Compound 782] | 
 |  | 4.52 to 6.00 | ≤ 4.52 | CC(=O)N1CCc2nc(N3CCN(C(=O)c4ccc(F)cc4F)CC3)c(-c3cnn(C)c3)nc2C1 [Compound 630, 1-{2-[4-(2,4-difluorobenzoyl)-1-piperazinyl]-3-(1-methyl-4-pyrazolyl)-5,6,7,8-tetrahydro-1,4,6-triaza-6-naphthyl}-1-ethanone] | 
